{
  "source": "patent US20110144045A1",
  "about": "“USE OF FUMAGILLIN AND THE DERIVATIVES THEREOF TO INCREASE THE BIOAVAILABILITY OF THE MACROCYCLIC LACTONES” (INSTITUT NATIONAL DE LA RECHERCHE AGRONOMIQUE, priority 2005, published 2011)",
  "key": {"murine Pgp": {"biological_target": "murine Pgp (Mus musculus, UniProt P21447)", "sequence (P21447 whole entry)": "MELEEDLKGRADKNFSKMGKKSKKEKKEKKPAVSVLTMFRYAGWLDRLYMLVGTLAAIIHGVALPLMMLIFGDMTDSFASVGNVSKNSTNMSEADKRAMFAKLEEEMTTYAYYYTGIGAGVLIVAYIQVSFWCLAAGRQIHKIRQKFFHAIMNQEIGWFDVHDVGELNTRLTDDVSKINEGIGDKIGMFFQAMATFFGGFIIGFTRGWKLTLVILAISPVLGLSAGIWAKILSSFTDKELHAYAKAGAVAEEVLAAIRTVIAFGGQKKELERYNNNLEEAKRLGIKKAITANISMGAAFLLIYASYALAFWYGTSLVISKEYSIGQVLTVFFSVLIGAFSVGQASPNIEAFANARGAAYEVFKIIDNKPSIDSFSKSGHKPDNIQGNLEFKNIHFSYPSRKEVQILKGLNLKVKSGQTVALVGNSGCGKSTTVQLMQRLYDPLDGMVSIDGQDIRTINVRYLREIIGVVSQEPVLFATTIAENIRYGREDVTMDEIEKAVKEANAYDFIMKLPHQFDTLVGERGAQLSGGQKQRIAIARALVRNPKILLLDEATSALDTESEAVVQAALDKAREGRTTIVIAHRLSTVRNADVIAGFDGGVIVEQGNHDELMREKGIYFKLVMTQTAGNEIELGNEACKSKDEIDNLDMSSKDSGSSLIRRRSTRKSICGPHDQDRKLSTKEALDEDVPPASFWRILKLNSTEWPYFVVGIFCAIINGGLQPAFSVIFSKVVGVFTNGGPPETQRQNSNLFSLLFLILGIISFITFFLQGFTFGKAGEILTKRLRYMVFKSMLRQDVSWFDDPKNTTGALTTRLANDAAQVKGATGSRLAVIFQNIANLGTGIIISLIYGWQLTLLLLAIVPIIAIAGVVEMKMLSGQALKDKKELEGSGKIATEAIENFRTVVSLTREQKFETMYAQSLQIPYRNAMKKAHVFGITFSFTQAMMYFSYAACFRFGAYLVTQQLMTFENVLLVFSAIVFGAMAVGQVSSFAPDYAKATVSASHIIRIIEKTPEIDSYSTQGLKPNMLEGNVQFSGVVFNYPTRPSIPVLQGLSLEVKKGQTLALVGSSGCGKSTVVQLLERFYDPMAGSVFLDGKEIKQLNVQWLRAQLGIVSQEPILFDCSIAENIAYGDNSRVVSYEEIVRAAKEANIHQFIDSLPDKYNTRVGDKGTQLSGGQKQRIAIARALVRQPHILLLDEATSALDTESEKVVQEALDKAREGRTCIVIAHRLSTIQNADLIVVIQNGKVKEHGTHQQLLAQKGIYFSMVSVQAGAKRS", "test": "Intracellular accumulation of rhodamine 123 in Mdr1a-LLCPK1 cells (Pgp transport function)", "format": "cell-based", "protocol": "(§1) They are cultured for 48 hours at 37° C. to reach confluence in 1 ml of medium without G418. The medium is eliminated and the cells washed with 0.5 ml PBS 1×. […] The cells are lysed by the addition of 0.3 ml PBS 1×/0.5% sodium dodecyl sulphate (50/50, v/v) in each well. After 10 minutes at ambient temperature, 0.3 ml PBS 1× is added to each well then the total lysate (0.6 ml) is transferred to a 2-ml plastic tube and stored at −20° C. until it is analyzed by spectrofluorometry.\n(§2) The results obtained were modelled according to the Hill model (Scientist software, Micromath research, Saint Louis, USA)."}, "rat hepatocytes [1]": {"test_system": "rat hepatocytes", "test": "Intracellular quantity of 14C moxidectin in primary-cultured rat hepatocytes +/- fumagillin", "format": "cell-based", "protocol": "The isolation and culturing of rat hepatocytes has been described previously (Dupuy et al., 2001b). The hepatocytes are distributed into culture dishes and kept at 37° C. for 12 hours (oven 5% CO2). The cells are cultured in the presence of 5 μM ^14C moxidectin (control) +/−100 μM fumagillin. After 0, 6, 24, 48 and 72 h the incubations are stopped (n=3 for each treatment), the media collected and the hepatocytes harvested by mechanical disassociation in phosphate buffer saline (PBS 1×). The media and the hepatocytes are stored at −20° C. until analysis by high-performance liquid chromatography (HPLC).\n^14C moxidectin is quantified in the medium and the hepatocytes by a HPLC technique coupled with an in-line radioactivity detection (Dupuy et al., 2001b). This technique allows ^14C moxidectin and its main metabolite (C29 monohydroxyethyl moxidectin) in rat hepatocytes to be detected and quantified. The radioactivity is measured by liquid scintillation counting (Kontron Beta V counter). The total initial radioactivity of the initial medium at 5 μM ^14C moxidectin +/−100 μM fumagillin corresponds to the 100% value. Due to the concentration of moxidectin detected in the hepatocytes (ng.ml^−1) and to the initially introduced percentage of radioactivity, the time-concentration areas under the curve are calculated from the first to the last experimental point using the trapezoidal method (Gibaldi and Perrier, 1982)."}, "murine Pgp (Mdr1a)": {"biological_target": "murine Pgp (Mdr1a) (Mus musculus, UniProt P21447)", "sequence (P21447 whole entry)": "as above", "test": "Intracellular accumulation of rhodamine 123 in Mdr1a-LLCPK1 cells (Pgp transport function)", "format": "cell-based", "settings": "mouse, probe rhodamine 123 (10 μM); Hill model; reached at 50 μM of fumagillin; read-out: maximum effect (Emax), Rho123 accumulation as percentage of the VSP effect", "protocol": "as §1, §2"}, "rat hepatocytes [2]": {"test_system": "rat hepatocytes", "settings": "rat hepatocytes in primary culture; Dupuy et al., 2001b; 2003; cited from earlier work"}},
  "data": [
    {"smiles": "CC[C@H](C)[C@H]1O[C@]2(CC[C@@H]1C)C[C@@H]1C[C@@H](C/C=C(\\C)[C@@H](O[C@H]3C[C@H](OC)[C@@H](O[C@H]4C[C@H](OC)[C@@H](O)[C@H](C)O4)[C@H](C)O3)[C@@H](C)/C=C/C=C3\\CO[C@@H]4[C@H](O)C(C)=C[C@@H](C(=O)O1)[C@]34O)O2", "note": "[IVM, ivermectin]", "values": [
      {"measurement": "effect on Rho 123 accumulation relative to the effect of VSP", "setting": "murine Pgp; 5 μM IVM, Mdr1a-LLCPK1 cells, 2 h, 10 μM Rho123", "value": 95, "unit": "%"}
    ]},
    {"smiles": "CO/N=C1\\C[C@]2(C[C@@H]3C[C@@H](C/C=C(\\C)C[C@@H](C)/C=C/C=C4\\CO[C@@H]5[C@H](O)C(C)=C[C@@H](C(=O)O3)[C@]45O)O2)O[C@H](/C(C)=C/C(C)C)[C@H]1C", "note": "[Moxidectin, moxidectin]", "values": [
      {"measurement": "time of maximum quantity of intracellular moxidectin", "setting": "rat hepatocytes [1]; rat", "value": 6, "unit": "h"},
      {"measurement": "quantity of 14C moxidectin in cultured rat hepatocytes", "setting": "rat hepatocytes [1]; rat, 0 h, 5 μM", "value": "4.5 ± 1.25"},
      {"measurement": "quantity of 14C moxidectin in cultured rat hepatocytes", "setting": "rat hepatocytes [1]; rat, 6 h, 5 μM", "value": "72.95 ± 9.98"},
      {"measurement": "main metabolite (C29 monohydroxyethyl) as share of the parent substance", "setting": "rat hepatocytes [1]; rat, 24 h, 5 μM", "value": "≤ 4", "unit": "%"},
      {"measurement": "quantity of 14C moxidectin in cultured rat hepatocytes", "setting": "rat hepatocytes [1]; rat, 24 h, 5 μM", "value": "52.60 ± 5.94"},
      {"measurement": "quantity of 14C moxidectin in cultured rat hepatocytes", "setting": "rat hepatocytes [1]; rat, 48 h, 5 μM", "value": "22.19 ± 4.00"},
      {"measurement": "quantity of 14C moxidectin in cultured rat hepatocytes", "setting": "rat hepatocytes [1]; rat, 72 h, 5 μM", "value": "11.98 ± 1.30"}
    ]},
    {"smiles": "C/C=C/C[C@@H](C)C(=O)[C@H]1C(=O)N[C@@H](C(C)C)C(=O)N(C)CC(=O)N(C)[C@@H](CC(C)C)C(=O)N[C@@H](C(C)C)C(=O)N(C)[C@@H](CC(C)C)C(=O)N[C@@H](C)C(=O)N[C@H](C)C(=O)N(C)[C@@H](CC(C)C)C(=O)N(C)[C@@H](CC(C)C)C(=O)N(C)[C@@H](C(C)C)C(=O)N1C", "note": "[VSP, Valspodar]", "values": [
      {"measurement": "Rho 123 accumulation, maximum value taken as reference", "setting": "murine Pgp; VSP 10 μM, considered to be the maximum value by definition", "value": 100, "unit": "%"}
    ]},
    {"smiles": "CO[C@@H]1[C@H](OC(=O)/C=C/C=C/C=C/C=C/C(=O)O)CC[C@]2(CO2)[C@H]1[C@@]1(C)O[C@@H]1CC=C(C)C", "note": "[fumagillin]", "values": [
      {"measurement": "increase of the quantity of moxidectin in the hepatocytes (time-concentration area under the curve)", "setting": "rat hepatocytes [1]; 100 μM fumagillin with 5 μM 14C moxidectin, over a period of 72 h, versus moxidectin control", "value": 65, "unit": "%"},
      {"measurement": "EC50", "setting": "murine Pgp; Rho123 accumulation in Mdr1a-LLCPK1, Hill model, read-out: EC50, concentration necessary to reach 50% of the maximum effect", "value": 10, "unit": "µM"},
      {"measurement": "effect on the quantity of intracellular Rho 123", "setting": "murine Pgp; fumagillin 10 to 100 μM", "value": "increased"},
      {"measurement": "Emax at 2 h, 50 μM", "setting": "murine Pgp (Mdr1a)", "value": 43.7, "unit": "%"}
    ]},
    {"smiles": "CC(=O)N1CCN(c2ccc(OCC3COC(Cn4ccnc4)(c4ccc(Cl)cc4Cl)O3)cc2)CC1", "note": "(stereo not drawn) [ketoconazole]", "values": [
      {"measurement": "effect on the quantity of 14C moxidectin in the hepatocytes of rats", "setting": "rat hepatocytes [2]", "value": "significantly increases"}
    ]},
    {"smiles": "O=c1c(O)c(-c2ccc(O)c(O)c2)oc2cc(O)cc(O)c12", "note": "[quercetin]", "values": [
      {"measurement": "effect on the quantity of 14C moxidectin in the hepatocytes of rats", "setting": "rat hepatocytes [2]", "value": "significantly increases"}
    ]}
  ]
}
